Laboratory results reported in BindingDB's records for doi:10.1021/bi3002067 (The University of Auckland, 2012).

Target: Salicylate synthase (Mycobacterium tuberculosis (strain CDC 1551 / Oshkosh), UniProt P9WFX0)
Assay: Fluorescence-Based Thermal Shift Assay
Method: The thermal stability of MbtI in the absence and presence of inhibitors was measured using a fluorescence-based thermal shift assay.

Sequence of Salicylate synthase (P9WFX0 whole entry): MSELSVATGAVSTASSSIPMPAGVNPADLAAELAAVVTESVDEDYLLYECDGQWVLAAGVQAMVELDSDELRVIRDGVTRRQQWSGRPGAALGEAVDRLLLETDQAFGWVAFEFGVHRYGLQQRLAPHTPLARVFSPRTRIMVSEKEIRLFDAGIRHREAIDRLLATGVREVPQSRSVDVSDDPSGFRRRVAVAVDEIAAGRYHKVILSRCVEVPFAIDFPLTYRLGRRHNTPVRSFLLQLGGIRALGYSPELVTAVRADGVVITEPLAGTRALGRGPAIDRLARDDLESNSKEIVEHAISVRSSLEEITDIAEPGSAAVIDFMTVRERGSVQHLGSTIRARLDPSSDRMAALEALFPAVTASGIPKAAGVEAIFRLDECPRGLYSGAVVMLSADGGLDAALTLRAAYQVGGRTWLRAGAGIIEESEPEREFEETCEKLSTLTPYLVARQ

For O=C(O)C(=CC1CC1)Oc1cccc(C(=O)O)c1O [cyclopropyl-AMT], the Ki was 12 µM.
